Data: US7732450B2, “Antifungal ketoconazole composition for topical use” (Boult Wade Tennant, priority 2000, dated 2010)

Assay: Solubility of ketoconazole in solvent media at room temperature
Assay type: physicochemical
Conditions: for Solubility: room temperature (21° C.)
Method: The solubility of ketoconazole in each of isopropyl alcohol, water and polyethoxylated glyceryl cocoate were established at room temperature (21° C.).
The solubility of ketoconazole in a composition of the present invention, prepared as in Example 1, containing 55% isopropyl alcohol, 35% water and 10% polyethoxylated glyceryl cocoate was also established at room temperature (21° C.).

SMILES: CC(=O)N1CCN(c2ccc(OCC3COC(Cn4ccnc4)(c4ccc(Cl)cc4Cl)O3)cc2)CC1 (centres unmarked) [ketoconazole, 1-acetyl-4-[4-[2-(2,4-dichlorophenyl)-2-imidazol-1-ylmethyl-1,3-dioxolan-4-ylmethoxy]phenyl]piperazine]
- Solubility (in composition of 55% isopropyl alcohol, 35% water and 10% polyethoxylated glyceryl cocoate): 2.8 wt %
- Solubility (in isopropyl alcohol): 0.4722 wt %
- Solubility (in polyethoxylated glyceryl cocoate): 0.8682 wt %
- Solubility (in water): 0.0233 wt %
- Solubility of ketoconazole in three-component solvent system (ternary solvent system (water, alcohol, non-ionic surface active agent)): up to 3 wt %
